For 52 compounds, IC50 results are on record in US20230348456A1, “QUINAZOLINONES, PHARMACEUTICAL COMPOSITIONS CONTAINING THE SAME, AND METHODS OF USING THE SAME” (Repare Therapeutics Inc., priority 2022, published 2023).

The structures appear in SMILES notation.

recombinant human Myt1, sequence (Q99640 whole entry): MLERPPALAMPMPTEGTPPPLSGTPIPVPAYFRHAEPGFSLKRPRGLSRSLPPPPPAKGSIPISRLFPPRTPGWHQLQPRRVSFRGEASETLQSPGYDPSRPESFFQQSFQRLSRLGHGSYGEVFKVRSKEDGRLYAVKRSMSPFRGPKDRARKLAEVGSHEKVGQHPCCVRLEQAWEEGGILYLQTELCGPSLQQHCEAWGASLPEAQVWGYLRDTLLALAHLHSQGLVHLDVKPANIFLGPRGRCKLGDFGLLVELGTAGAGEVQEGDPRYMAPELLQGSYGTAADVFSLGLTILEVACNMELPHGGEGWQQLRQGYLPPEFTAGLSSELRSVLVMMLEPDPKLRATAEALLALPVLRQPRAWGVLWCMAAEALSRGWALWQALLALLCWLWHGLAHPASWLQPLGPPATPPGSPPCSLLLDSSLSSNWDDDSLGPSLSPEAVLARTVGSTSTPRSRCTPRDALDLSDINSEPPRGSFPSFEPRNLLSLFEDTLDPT

The test has as its target recombinant human Myt1 (Homo sapiens (Human), UniProt Q99640). The experiment in a line: Myt1 enzymatic assay (ADP-Glo kinase assay). Type of test: biochemical. The note with it: recombinant human Myt1 18 nM, ATP 10 μM. Here is the method:
Detection of Myt1 kinase activity utilized a recombinant human Myt1 kinase assay measuring the hydrolysis of ATP using a commercially available ADP-Glo Assay (ADP-Glo™ Kinase Assay from Promega, 10 000 assays, #V9102). Briefly, 5 μL recombinant human Myt1 (full length PKMYT1 recombinant human protein expressed in insect cells from Thermo Fisher #A33387; ˜80% purity) was prepared in reaction buffer (70 mM HEPES, 3 mM MgCl2, 3 mM MnCl2, 50 μg/ml PEG 20000, 3 μM Na-orthovanadate, 1.2 mM DTT) and added to 384 well white polystyrene, flat bottom well, non-treated, microplate (Corning #3572). After this, 5 μL of compounds (diluted in reaction buffer to 0.5% DMSO) was added to the microplate and the plate was spun briefly and incubated at 22° C. for 15 minutes. Ultra-Pure Adenosine Triphosphate (ATP) solution (ADP-Glo kit from Promega) was diluted in reaction buffer and 5 μL was added to the microplate, spun down briefly and incubated for 60 minutes at 30° C. The final Myt1 enzyme concentration was 18 nM and the final ATP concentration was 10 μM. After the 60-minute incubation, 15 μL of ADP-Glo reagent was added and the plate was spun briefly and sealed and incubated in the dark for 40 minutes at 22° C. Following this, 30 μL of kinase detection reagent was added per well and the plate was spun briefly, sealed and incubated for 45-60 minutes at 22° C. in the dark. Luminescence was read using the Envision (250 ms integration). The IC50 and the % max inhibition were calculated for each inhibitor compound tested.
A general note: ADP-Glo first removes unused ATP, then detects ADP through luciferase.
`Cc1ccc(O)c(C)c1-c1cc(-c2cnn(C3CC3)c2)c2nc(-c3ccncc3)[nH]c(=O)c2c1N` (atropisomer, axis not shown) [Compound 27]: the IC50 is 2 nM. With `Cc1ccc(O)c(C)c1-c1cc(C2CC2)c2nc(-c3ccncc3)[nH]c(=O)c2c1N` (single isomer, unassigned) [Compound 22, 5-amino-8-cyclopropyl-6-(3-hydroxy-2,6-dimethyl-phenyl)-2-(4-pyridyl)-3H-quinazolin-4-one], the IC50 amounted to 3 nM. In the case of `Nc1c(-c2cccc3[nH]ncc23)cc(-c2nccs2)c2nc(-c3ccccc3)[nH]c(=O)c12` [Compound 1, 5-amino-6-(1H-indazol-4-yl)-2-phenyl-8-(thiazol-2-yl)quinazolin-4(3H)-one], the half-inhibitory concentration (IC50) was found to be 4 nM.

As to `Nc1c(-c2cccc3[nH]ncc23)cc(-c2nccs2)c2nc(-c3ccc(N4CCOCC4)nc3)[nH]c(=O)c12` [Compound 2], the IC50 was 15 nM. Then `Cc1ccc(-c2nc3c(-c4nccs4)cc(-c4cccc5[nH]ncc45)c(N)c3c(=O)[nH]2)cc1` [Compound 3], with 33 nM. Consider `Nc1ccc(-c2nc3c(-c4nccs4)cc(-c4cccc5[nH]ncc45)c(N)c3c(=O)[nH]2)cn1` [Compound 4], for which the half-inhibitory concentration (IC50) amounted to 5 nM.

Take `N#Cc1ccc(-c2nc3c(-c4nccs4)cc(-c4cccc5[nH]ncc45)c(N)c3c(=O)[nH]2)cc1` [Compound 5]: the IC50 worked out at 89 nM. For `Nc1c(-c2cccc3[nH]ncc23)cc(-c2nccs2)c2nc(-c3ccc(-c4ccccc4)cc3)[nH]c(=O)c12` [Compound 6] the value was above 2000 nM; for `Nc1c(-c2cccc3[nH]ncc23)cc(-c2nccs2)c2nc(C3CC3)[nH]c(=O)c12` [Compound 8], 131 nM. Turning to `Cc1nc2c(-c3nccs3)cc(-c3cccc4[nH]ncc34)c(N)c2c(=O)[nH]1` [Compound 9], the concentration for half-maximal inhibition (IC50) was found to be 47 nM. Consider `Nc1c(-c2cccc3[nH]ncc23)cc(Br)c2nc(-c3ccc(N4CCNCC4)nc3)[nH]c(=O)c12` [Compound 10], for which the half-inhibitory concentration (IC50) amounted to 3 nM. For `Nc1c(-c2cccc3[nH]ncc23)cc(Br)c2nc(-c3ccc(N4CCN(C5CC5)C(=O)C4)nc3)[nH]c(=O)c12` [Compound 11] the value was 5 nM; for `CN(C)c1ccc(-c2nc3c(Br)cc(-c4cccc5[nH]ncc45)c(N)c3c(=O)[nH]2)cn1` [Compound 12], 9 nM. As for `Nc1c(-c2cccc3[nH]ncc23)cc(-c2nccs2)c2nc(C3CCOCC3)[nH]c(=O)c12` [Compound 13], the 50% inhibitory concentration (IC50) is 1410 nM.

As to `CS(=O)(=O)c1ccc(-c2nc3c(-c4nccs4)cc(-c4cccc5[nH]ncc45)c(N)c3c(=O)[nH]2)cc1` [Compound 14], the IC50 was determined as 6 nM. In the case of `Nc1c(-c2cccc3[nH]ncc23)cc(-c2nccs2)c2nc(-c3ccnc(N4CCOCC4)c3)[nH]c(=O)c12` [Compound 15, 5-amino-6-(1H-indazol-4-yl)-2-(2-morpholinopyridin-4-yl)-8-(thiazol-2-yl)quinazolin-4(3H)-one], the IC50 is 10 nM. Then `Nc1ccc(-c2nc3c(-c4nccs4)cc(-c4cccc5[nH]ncc45)c(N)c3c(=O)[nH]2)cc1` [Compound 16], with 54 nM; and `CC(=O)Nc1ccc(-c2nc3c(-c4nccs4)cc(-c4cccc5[nH]ncc45)c(N)c3c(=O)[nH]2)cc1` [Compound 17], with 78 nM. Then `Nc1c(-c2cccc3[nH]ncc23)cc(-c2nccs2)c2nc(-c3cccc(N4CCOCC4)c3)[nH]c(=O)c12` [Compound 18], with 9 nM. For `Nc1c(-c2cccc3[nH]ncc23)cc(Br)c2nc(-c3ccc(NC4CCOC4)nc3)[nH]c(=O)c12` (stereo not shown) [Compound 19] the value was 3 nM. In the case of `Cc1cccc(-c2nc3c(-c4nccs4)cc(-c4cccc5[nH]ncc45)c(N)c3c(=O)[nH]2)c1` [Compound 20], the IC50 is 10 nM. Then `N#Cc1cccc(-c2nc3c(-c4nccs4)cc(-c4cccc5[nH]ncc45)c(N)c3c(=O)[nH]2)c1` [Compound 21], with 6 nM. For `Nc1c(-c2cccc3[nH]ncc23)cc(Br)c2nc(-c3ccc(NCCN4CCCC4)nc3)[nH]c(=O)c12` [Compound 23] the value was 4 nM. Turning to `CN1CCN(c2ccc(-c3nc4c(Br)cc(-c5cccc6[nH]ncc56)c(N)c4c(=O)[nH]3)cn2)CC1` [Compound 24], the IC50 stood at 10 nM. For `Nc1c(-c2cccc3[nH]ncc23)cc(Br)c2nc(-c3ccc(N4CCOCC4)nc3)[nH]c(=O)c12` [Compound 25, 5-amino-8-bromo-6-(1H-indazol-4-yl)-2-(6-morpholinopyridin-3-yl)quinazolin-4(3H)-one 2,2,2-trifluoroacetate] the value was 23 nM; for `Nc1c(-c2cccc3[nH]ncc23)cc(Br)c2nc(-c3ccc(N4CCN(C5CC5)CC4)nc3)[nH]c(=O)c12` [Compound 26], 5 nM.

Take `Nc1c(-c2cccc3[nH]ncc23)cc(-c2nccs2)c2nc[nH]c(=O)c12` [Compound 28]: the IC50 is 4 nM. For `COCCNc1ccc(-c2nc3c(Br)cc(-c4cccc5[nH]ncc45)c(N)c3c(=O)[nH]2)cn1` [Compound 29] the value was 3 nM.

Take `Nc1c(-c2cccc3[nH]ncc23)cc(-c2nccs2)c2nc(-c3ccnc(N4CCNCC4)c3)[nH]c(=O)c12` [Compound 31]: the half-inhibitory concentration (IC50) came out at 15 nM. In the case of `Nc1c(-c2cccc3[nH]ncc23)cc(Br)c2nc(-c3ccc(N4CCC(C(=O)O)CC4)nc3)[nH]c(=O)c12` [Compound 32], the half-inhibitory concentration (IC50) was determined as 6 nM.

`Nc1c(-c2cccc3[nH]ncc23)cc(-c2nccs2)c2nc(-c3ccncc3)[nH]c(=O)c12` [Compound 33]: the IC50 was 9 nM.

In the case of `Nc1c(-c2cccc3[nH]ncc23)cc(Br)c2nc(-c3ccc(NC4COC4)nc3)[nH]c(=O)c12` [Compound 35], the 50% inhibitory concentration (IC50) amounted to 29 nM. For `Nc1c(-c2cccc3[nH]ncc23)cc(Br)c2nc(-c3ccc(N4CCN(CCO)CC4)nc3)[nH]c(=O)c12` [Compound 36] the value was 76 nM; for `COCCNc1cc(-c2nc3c(Br)cc(-c4cccc5[nH]ncc45)c(N)c3c(=O)[nH]2)ccn1` [Compound 37], 11 nM. For `CN1CCN(c2cc(-c3nc4c(Br)cc(-c5cccc6[nH]ncc56)c(N)c4c(=O)[nH]3)ccn2)CC1` [Compound 38] the value was 10 nM.

In the case of `Nc1c(-c2cccc3[nH]ncc23)cc(-c2nccs2)c2nc(-c3cccc(CN4CCOCC4)c3)[nH]c(=O)c12` [Compound 40], the IC50 worked out at 18 nM. For `Nc1c(-c2cccc3[nH]ncc23)cc(-c2nccs2)c2nc(-c3cccnn3)[nH]c(=O)c12` [Compound 41] the value was 10 nM; for `COCc1nc2c(-c3nccs3)cc(-c3cccc4[nH]ncc34)c(N)c2c(=O)[nH]1` [Compound 43], 20 nM; for `Nc1c(-c2cccc3[nH]ncc23)cc(Br)c2nc(-c3ccc(N4CCCCC4CO)nc3)[nH]c(=O)c12` (stereo not shown) [Compound 44], 11 nM. For `Nc1c(-c2cccc3[nH]ncc23)cc(Br)c2nc(-c3ccc(N4CCC(O)CC4)nc3)[nH]c(=O)c12` [Compound 45] the value was 18 nM; for `Nc1c(-c2cccc3[nH]ncc23)cc(-c2nccs2)c2nc(Cc3ccccc3)[nH]c(=O)c12` [Compound 46], above 2000 nM. On to `CC1(O)CCN(c2ccc(-c3nc4c(Br)cc(-c5cccc6[nH]ncc56)c(N)c4c(=O)[nH]3)cn2)CC1` [Compound 47], for which the half-maximal inhibitory concentration (IC50) turned out to be 11 nM. For `Nc1c(-c2cccc3[nH]ncc23)cc(-c2ccc(F)cc2)c2nc[nH]c(=O)c12` [Compound 48, 5-amino-8-(4-fluorophenyl)-6-(1H-indazol-4-yl) quinazolin-4(3H)-one], the 50% inhibitory concentration (IC50) came to 30 nM.

For the compound `Nc1c(-c2cccc3[nH]ncc23)cc(-c2cccc(C(F)(F)F)c2)c2nc[nH]c(=O)c12` [Compound 49], the concentration for half-maximal inhibition (IC50) was determined as 990 nM.

`Nc1c(-c2cccc3[nH]ncc23)cc(-c2cccc(OCCN3CCOCC3)n2)c2nc(-c3ccncc3)[nH]c(=O)c12` [Compound 50, 5-amino-6-(1H-indazol-4-yl)-8-[6-(2-morpholinoethoxy)-2-pyridyl]-2-(4-pyridyl)-3H-quinazolin-4-one]: the IC50 turned out to be 2 nM.

Regarding `Cc1ccc2[nH]ncc2c1-c1cc(-c2ccnnc2)c2c(c1N)C(=O)NC2` [Compound 51], the IC50 came to 1230 nM. Then `Nc1c(-c2cccc3[nH]ncc23)cc(-c2cccc(OCCN3CCOCC3)c2)c2nc(-c3ccncc3)[nH]c(=O)c12` [Compound 52], with 5 nM; and `Nc1c(-c2cccc3[nH]ncc23)cc(-c2cccc(OCCN3CCCC3)n2)c2nc(-c3ccncc3)[nH]c(=O)c12` [Compound 54], with 2 nM. Then `Nc1c(-c2cccc3[nH]ncc23)cc(-c2cccc(OC[C@@H]3CCCO3)n2)c2nc(-c3ccncc3)[nH]c(=O)c12` [Compound 55], with 4 nM; and `CN1CC=C(c2cc(-c3cccc4[nH]ncc34)c(N)c3c(=O)[nH]c(-c4ccncc4)nc23)CC1` [Compound 56], with 7 nM.

As for `CC(=O)N1CC=C(c2cc(-c3cccc4[nH]ncc34)c(N)c3c(=O)[nH]c(-c4ccncc4)nc23)CC1` [Compound 57], the half-inhibitory concentration (IC50) is 2 nM. Then `Nc1c(-c2cccc3[nH]ncc23)cc(-c2cnn(C3COC3)c2)c2nc(-c3ccncc3)[nH]c(=O)c12` [Compound 58], with 1 nM.

As a reminder, the IC50 is the concentration that inhibits the measured activity by half.
